The test system of assay [1] is lesions of papillomatous digital dermatitis (PDD). As to the kind of experiment: Effect of various treatments on lesions of papillomatous digital dermatitis in Holstein cows. Particulars: for No. of cows assessed: Responded / No. of lesions assessed: Responded: complete therapeutic response, assessed at post-treatment days 7, 14 and 21, herds 5 to 7; for Mean therapeutic response time: determined by desiccation and keratinization of surfaces and absence of pain. It is filed as in vivo. The procedure:
(§1) The effect of various treatments was assessed on a total of 72 lesions of PDD in 35 cows in […] (herds 4 and 5-7). Treatments consisted of procaine penicillin G (G. C. Hanford Manufacturing Co., Syracuse, N.Y.), 18,000 units/kg IM BID for 3 days (7 cows); ceftiofur sodium (Naxcel®, The Upjohn Co., Kalamazoo, Mich.), 2 mg/kg daily for 3 days (14 cows); oxytetracycline (Terramycin—343®Pfizer Animal Health, N.Y.), single topical application of approximately 5 g of soluble powder bandaged directly onto a clean lesion for 7 days (3 cows); formadelhyde (Fisher Scientific, Pittsburg, Pa.), 39% v/v, single topical application (5 cows); hydrochloric acid (Fisher Scientific, Pittsburg, Pa.), 36% v/v, single topical application (4 cows); surgical excision (4 cows); and chlorodifluoromethane, dimethylether (Brand Spray, Stockman Products Ltd., Castledown, Isle of Man, UK), 2 minutes of topical cryogenic spray until lesion and margin were frozen solid and white (1 cow). Two cows which received no, treatment served as untreated controls. Therapeutic response was assessed at post treatment days: 7 (4 cows), 7 and 14 (23 cows) and 7, 14 and 21 (7 cows). Therapeutic response was considered complete if there was entire transformation of moist, red, raw, prone-to-bleed, painful surfaces to dry, dark brown, firm, rubbery, keratinacious, non-painful surfaces adherent to underlying pink healthy-appearing skin. […] Another 6 lesions of PDD in 4 cows in herd 4 were reexamined 5 weeks after total surgical excision.

For assay [2] the test system is unchanged. Nature of the assay: Prevalence of recurrent and new PDD lesions at follow-up examination of treated cows. It is filed as in vivo, Holstein cows. Conditions: for Recurrence and new-lesion development (in words): 7-12 weeks after complete response; for New: Cows n / New: Lesions n: lesion at a previously non-affected site; for New: Cows n / New: Lesions n / Recurrent: Cows n / Recurrent: Lesions n: cows that completely responded 7-12 weeks before follow-up; for Recurrent: Cows n / Recurrent: Lesions n: recurrence at a previously responsive affected site. The method, then:
as §1

`Cl` [Hydrochloric acid (35%), hydrochloric acid]: in assay [1], the “No. of cows assessed: Responded” value is listed as 2, the “No. of lesions assessed: Responded” value amounted to 3 and the “Mean therapeutic response time” value came to 7 days. Further, in assay [1] (in vivo), the “Incomplete responses, number of cows” value is 2 cows and the “Therapeutic response of PDD lesions (in words)” value is on record as “persistence of small painful deep ulcers”. For the same molecule, in assay [2], the “Recurrence and new-lesion development (in words)” value is “New lesions occurred”; the “New: Cows n” value is recorded as 2; the “New: Lesions n” value came to 3; the “Recurrent: Cows n” value is listed as 0^. For the same molecule, the “Recurrent: Lesions n” value in assay [2] is reported as 0.

Consider `C=O` [Formaldehyde (39%), formadelhyde], for which, in assay [1], the “No. of cows assessed: Responded” value came to 5, the “No. of lesions assessed: Responded” value came out at 8 and the “Mean therapeutic response time” value came to 7 days. In addition, in assay [2], the “New: Cows n” value was found to be 0, the “New: Lesions n” value amounted to 0, the “Recurrent: Cows n” value is on record as 0^ and the “Recurrent: Lesions n” value came out at 0.

As to `CN(C)[C@@H]1C(O)=C(C(N)=O)C(=O)[C@@]2(O)C(O)=C3C(=O)c4c(O)cccc4[C@@](C)(O)[C@H]3[C@H](O)[C@@H]12` [Oxytetracycline, topical, oxytetracycline], in assay [1], the “No. of cows assessed: Responded” value was found to be 3, the “No. of lesions assessed: Responded” value worked out at 4 and the “Mean therapeutic response time” value turned out to be 7 days.

As for “procaine penicillin G [Penicillin G procaine IM]”, in assay [1], the “No. of cows assessed: Responded” value was found to be 7, the “No. of lesions assessed: Responded” value is 9 and the “Mean therapeutic response time” value was 8.2 ± 2.5 days. Also, in assay [2], the “Recurrence and new-lesion development (in words)” value was “Recurrence and new-lesion-development were observed”; the “New: Cows n” value came out at 2; the “New: Lesions n” value is 4; the “Recurrent: Cows n” value is on record as 1^|. The “Recurrent: Lesions n” value in assay [2] stood at 1.

For `CO/N=C(\C(=O)N[C@@H]1C(=O)N2C(C(=O)O)=C(CSC(=O)c3ccco3)CS[C@H]12)c1csc(N)n1` [Ceftiofur IM, ceftiofur sodium], in assay [1], the “No. of cows assessed: Responded” value was 13, the “No. of lesions assessed: Responded” value is 41 and the “Mean therapeutic response time” value was 11.1 ± 4.5 days. Moreover, the “Incomplete responses, number of cows” value in assay [1] (in vivo) is 2 cows. Further, in assay [2], the “Recurrence and new-lesion development (in words)” value is “Recurrence and new-lesion-development were observed”; the “New: Cows n” value came out at 2; the “New: Lesions n” value is on record as 2; the “Recurrent: Cows n” value is 4^|. Further, the “Recurrent: Lesions n” value in assay [2] was 6.
